Data set [1] in a line: In vitro stability in human serum (LC/MS/MS). To be noted: for half-life at 750 nM: human.
Method: Test compound is added to 1.5 mL human serum in a 96-wells deepwell plate in a final concentration of 750 nM. The compound is mixed and immediately thereafter a 100 μl sample is harvested in a 96-wells 2D-tuberack (T=0 sample). The 2 D-tubes are closed with rubber tube caps and the sample plate is stored at −20° CF. in the freezer. The deepwell plate is put into an incubator which was set at humidified (95%) atmosphere at 5-7% CO2 and 37° C. for an incubation period of maximum 240 h. During this incubation period, samples of 100 μl are collected on various time intervals, dependent on the test compound used; time points 0, 1, 2, 3, 6, 24, 48, 72 h in case of Kisspeptides and 0, 3, 6, 24, 48, 72, 168, 240 h in case of kisspeptide-pentasaccharide conjugates. Sample plates are put on ice in case of sampling and stored at −20° C. until analysis by LC/MS/MS.
For LC-MS/MS analysis, the compounds are separated over an XTerra RP8 column and using a gradient mobile phase of ammonium acetate buffer and acetonitrile at a fixed column temperature. MS/MS detection is done with a triple quadrupole mass spectrometer and employing negative ion electrospray ionization. The mass spectrometer is set up to achieve a known degree of in source fragmentation, where the initially formed multiply charged negative ions lose one or more SO3 molecules. The most abundant of these secondary ions are then subjected to a common MS/MS experiment in which a single SO3 loss is monitored. The Q1 and Q3 mass filter settings for this MS/MS experiment have commonly been determined in method development. […] Internal standardization is accomplished by adding a different conjugate of approximately the same size to the bioanalytical samples.
The rate of compound loss is expressed as a half-life (plasma t^1/2). The t^1/2 for the test compound can be determined by plotting the natural logarithm (In) of the measured concentrations against time and fitting the line through all data points. The gradient of this line is the first order rate constant (k) for substrate disappearance and is determined by regression analysis. The rate constant is converted to a half-life according to the following equation: In vitro half-life(t^1/2)=−ln 2/k
The target in another data set is T1, human KISS-receptor (Homo sapiens, UniProt Q969F8).
T1 construct: expressed in transfected cells; host or cells: CHO-k1 cells that also express mitochondrially targeted aequorin, Gα16 and an NFAT-luciferase reporter
The data set can be described thus: NFAT-regulated luciferase reporter gene assay in CHO-k1 cells, agonist activity. It is filed as cell-based.

Setting [2] is: absence of human serum, read-out: pEC50 (converted).
The mark [3] stands for this setting: presence of 20% human serum, read-out: pEC50 serum (converted).

Where two headings read alike, the source gives them in different places. Square brackets hold non-standard residues; d marks the D form. Peptide text beside a SMILES is read from it. Arg(Me) = CNC(=N)NCCC[C@H](N)C(=O)O; azaGly = NNC(=O)O

T1 sequence (Q969F8 whole entry): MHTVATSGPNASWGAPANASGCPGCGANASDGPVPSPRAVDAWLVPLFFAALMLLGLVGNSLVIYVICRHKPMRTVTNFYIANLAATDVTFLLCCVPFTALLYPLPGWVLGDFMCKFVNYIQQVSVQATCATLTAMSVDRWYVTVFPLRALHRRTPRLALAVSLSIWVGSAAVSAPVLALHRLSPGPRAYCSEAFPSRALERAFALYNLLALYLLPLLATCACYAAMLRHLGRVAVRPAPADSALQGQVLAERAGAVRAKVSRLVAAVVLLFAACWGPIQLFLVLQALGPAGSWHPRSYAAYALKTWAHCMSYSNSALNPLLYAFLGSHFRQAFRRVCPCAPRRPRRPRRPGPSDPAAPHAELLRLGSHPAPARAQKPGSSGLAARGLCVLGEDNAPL
Method for human KISS-receptor: CHO-k1 cells were used that expressed the mitochondrially targeted aequorine and Gα16 (from Euroscreen, Brussels, Belgium), a Nuclear Factor of Activated T-cells-responsive element (NFAT) under the control of a promoter directing the expression of a firefly luciferase reporter gene (pNFAT-TALuc obtained from Clontech, Mountain View, Calif.), and the human GPR54-R Hygro(+)-hGPR54WT c4; MSD). These cells were cultured in Dulbecco's Modified Eagle Medium: Nutrient Mixture F-12 (DMEM/F12) (Invitrogen, Carlsbad, Calif.), supplemented with 10% (vol/vol) filtered bovine serum (Hyclone, Thermo Fisher Scientific, Waltham, Mass.), 100 U/ml penicillin G, 100 μg/ml streptomycin, 400 μg/ml Geneticin and 400 μg/ml Hygromycin (Invitrogen). […] Kisspeptin-10 was used as a standard. […] When the conjugates were tested in the presence of a final percentage of 20% human serum, 10 μl assay medium containing 60% human serum (Sigma-Aldrich, #H4522) was added to the wells. In the absence of human serum, 10 μl of assay medium was added. Cells were harvested and diluted to a concentration of 7.5E5 cells/ml in assay medium without 0.1% BSA. 10 μl of cell solution was added to the compound wells. After incubation for 4 hours in a humidified atmosphere at 5% CO2 and 37° C., the plate was left at room temperature for 30 minutes. Subsequently, 15 μl of Steadylite™ solution (PerkinElmer, Boston, Mass.) was added and the cells, protected from light, were allowed to lyse for 30 min at room temperature. Luminescence, indicated as relative luminescence units (RLU), was measured on an Envision Multilabel reader (PerkinElmer).

Take `CNC(=N)NCCC[C@H](NC(=O)[C@H](CC(C)C)NC(=O)NNC(=O)[C@H](Cc1ccccc1)NC(=O)[C@@H](NC(=O)[C@H](CC(N)=O)NC(=O)[C@H](Cc1c[nH]c2ccccc12)NC(=O)[C@H](CC(N)=O)NC(=O)[C@@H](Cc1ccc(O)cc1)NC(=O)CCCCn1cc(CCC(=O)NCCOCCOCCOCCO[C@H]2[C@H](OC)[C@@H](OC)[C@@H](O[C@H]3[C@H](OC)[C@@H](OC)[C@H](O[C@H]4[C@H](OS(=O)(=O)O)[C@@H](OS(=O)(=O)O)[C@@H](O[C@H]5[C@H](OC)[C@@H](OC)[C@H](O[C@H]6[C@H](OC)[C@@H](OS(=O)(=O)O)[C@@H](OC)O[C@@H]6COS(=O)(=O)O)O[C@H]5C(=O)O)O[C@@H]4COS(=O)(=O)O)O[C@@H]3C(=O)O)O[C@@H]2COS(=O)(=O)O)nn1)[C@@H](C)O)C(=O)N[C@@H](Cc1ccccc1)C(N)=O` [Conjugate C7]: the half-life at 750 nM in data set [1] is 171 h. The EC50 at human KISS-receptor (pEC50, absence of human serum) is 0.158 nM; at human KISS-receptor (pEC50 serum, presence of 20% human serum), 0.501 nM.
In data set [1], `CO[C@H]1O[C@H](COS(=O)(=O)O)[C@@H](O[C@@H]2O[C@@H](C(=O)O)[C@@H](O[C@H]3O[C@H](COS(=O)(=O)O)[C@@H](O[C@@H]4O[C@H](C(=O)O)[C@@H](O[C@H]5O[C@H](COS(=O)(=O)O)[C@@H](OCCOCCOCCOCCNC(=O)CCc6cn(CCCCC(=O)N[C@@H](Cc7ccc(O)cc7)C(=O)N[C@@H](CC(N)=O)C(=O)N[C@@H](Cc7c[nH]c8ccccc78)C(=O)N[C@@H](CC(N)=O)C(=O)N[C@@H](CO)C(=O)N[C@@H](Cc7ccccc7)C(=O)NCC(=O)N[C@@H](CC(C)C)C(=O)N[C@@H](CCCNC(=N)N)C(=O)N[C@@H](Cc7ccccc7)C(N)=O)nn6)[C@H](OC)[C@H]5OC)[C@H](OC)[C@H]4OC)[C@H](OS(=O)(=O)O)[C@H]3OS(=O)(=O)O)[C@H](OC)[C@H]2OC)[C@H](OS(=O)(=O)O)[C@H]1OS(=O)(=O)O` [Conjugate C42, reference compound] showed a half-life at 750 nM of 121 h. Moreover, the results for the EC50 on human KISS-receptor (setting [2]) and at human KISS-receptor (setting [3]) were 1.58 nM and 31.6 nM, respectively. The “potency (in words)” value on human KISS-receptor (in words) is reported as “not sufficiently potent”.
In data set [1], `CNC(=N)NCCC[C@H](NC(=O)[C@H](CC(C)C)NC(=O)NNC(=O)[C@H](Cc1ccccc1)NC(=O)[C@@H](NC(=O)[C@H](CC(N)=O)NC(=O)[C@@H]1C[C@@H](O)CN1C(=O)[C@@H](Cc1ccc(O)cc1)NC(=O)CCOCCOCCOCCOCCn1cc(CCC(=O)NCCOCCOCCOCCO[C@H]2[C@H](OC)[C@@H](OC)[C@@H](O[C@H]3[C@H](OC)[C@@H](OC)[C@H](O[C@H]4[C@H](OS(=O)(=O)O)[C@@H](OS(=O)(=O)O)[C@@H](O[C@H]5[C@H](OC)[C@@H](OC)[C@H](O[C@H]6[C@H](OC)[C@@H](OS(=O)(=O)O)[C@@H](OC)O[C@@H]6COS(=O)(=O)O)O[C@H]5C(=O)O)O[C@@H]4COS(=O)(=O)O)O[C@@H]3C(=O)O)O[C@@H]2COS(=O)(=O)O)nn1)[C@@H](C)O)C(=O)N[C@@H](Cc1c[nH]c2ccccc12)C(N)=O` [Conjugate C34] had a half-life at 750 nM of 138 h. The EC50 at human KISS-receptor (setting [2]) was 0.0407 nM; at human KISS-receptor (setting [3]), 0.141 nM.
The compound `CNC(=N)NCCC[C@H](NC(=O)[C@H](CC(C)C)NC(=O)CNC(=O)[C@H](Cc1ccccc1)NC(=O)[C@@H](NC(=O)[C@H](CC(N)=O)NC(=O)[C@@H]1C[C@@H](O)CN1C(=O)[C@H](CC(N)=O)NC(=O)[C@H](Cc1ccc(O)cc1)NC(=O)CCOCCOCCOCCOCCn1cc(CCC(=O)NCCOCCOCCOCCO[C@H]2[C@H](OC)[C@@H](OC)[C@@H](O[C@H]3[C@H](OC)[C@@H](OC)[C@H](O[C@H]4[C@H](OS(=O)(=O)O)[C@@H](OS(=O)(=O)O)[C@@H](O[C@H]5[C@H](OC)[C@@H](OC)[C@H](O[C@H]6[C@H](OC)[C@@H](OS(=O)(=O)O)[C@@H](OC)O[C@@H]6COS(=O)(=O)O)O[C@H]5C(=O)O)O[C@@H]4COS(=O)(=O)O)O[C@@H]3C(=O)O)O[C@@H]2COS(=O)(=O)O)nn1)[C@@H](C)O)C(=O)N[C@@H](Cc1ccccc1)C(N)=O` [Conjugate C25] had a half-life at 750 nM in data set [1] of 188 h. Further, the EC50 is 0.372 nM at human KISS-receptor (setting [2]) and 1.02 nM on human KISS-receptor (setting [3]).
The matching figures for `CNC(=N)NCCC[C@H](NC(=O)[C@H](CC(C)C)NC(=O)NNC(=O)[C@H](Cc1ccccc1)NC(=O)[C@@H](NC(=O)[C@H](CC(N)=O)NC(=O)[C@@H]1C[C@@H](O)CN1C(=O)[C@@H](Cc1ccc(O)cc1)NC(=O)CCOCCOCCOCCOCCn1cc(CCC(=O)NCCOCCOCCOCCO[C@H]2[C@H](OC)[C@@H](OC)[C@@H](O[C@H]3[C@H](OC)[C@@H](OC)[C@H](O[C@H]4[C@H](OS(=O)(=O)O)[C@@H](OS(=O)(=O)O)[C@@H](O[C@H]5[C@H](OC)[C@@H](OC)[C@H](O[C@H]6[C@H](OS(=O)(=O)O)[C@@H](OS(=O)(=O)O)[C@@H](OC)O[C@@H]6COS(=O)(=O)O)O[C@H]5C(=O)O)O[C@@H]4COS(=O)(=O)O)O[C@@H]3C(=O)O)O[C@@H]2COS(=O)(=O)O)nn1)[C@@H](C)O)C(=O)N[C@@H](Cc1c[nH]c2ccccc12)C(N)=O` [Conjugate C35]: > 240 h, 0.0427 nM and 1.38 nM.
Compound `CNC(=N)NCCC[C@H](NC(=O)[C@H](CC(C)C)NC(=O)NNC(=O)[C@H](Cc1ccccc1)NC(=O)[C@@H](NC(=O)[C@H](CC(N)=O)NC(=O)[C@H](Cc1c[nH]c2ccccc12)NC(=O)[C@H](CC(N)=O)NC(=O)[C@H](N)Cc1ccc(O)cc1)[C@@H](C)O)C(=O)N[C@@H](Cc1ccccc1)C(N)=O` [Conjugate P29, reference compound] (H-[dY]NWNTF[azaGly]L[Arg(Me)]F-NH2) showed a half-life at 750 nM in data set [1] of 5.4 h. The “stability (in words)” value in data set [1] (in words) is given as “not sufficiently stable”. Besides, the EC50 at human KISS-receptor (setting [2]) is 0.1 nM; on human KISS-receptor (setting [3]), 0.0501 nM.
The compound `CNC(=N)NCCC[C@H](NC(=O)[C@H](CC(C)C)NC(=O)NNC(=O)[C@H](Cc1ccccc1)NC(=O)[C@@H](NC(=O)[C@H](CC(N)=O)NC(=O)[C@H](Cc1c[nH]c2ccccc12)NC(=O)[C@H](CC(N)=O)NC(=O)[C@@H](Cc1ccc(O)cc1)NC(=O)CCOCCOCCOCCOCCn1cc(CCC(=O)NCCOCCOCCOCCO[C@H]2[C@H](OC)[C@@H](OC)[C@@H](O[C@H]3[C@H](OC)[C@@H](OC)[C@H](O[C@H]4[C@H](OS(=O)(=O)O)[C@@H](OS(=O)(=O)O)[C@@H](O[C@H]5[C@H](OC)[C@@H](OC)[C@H](O[C@H]6[C@H](OC)[C@@H](OS(=O)(=O)O)[C@@H](OC)O[C@@H]6COS(=O)(=O)O)O[C@H]5C(=O)O)O[C@@H]4COS(=O)(=O)O)O[C@@H]3C(=O)O)O[C@@H]2COS(=O)(=O)O)nn1)[C@@H](C)O)C(=O)N[C@@H](Cc1ccccc1)C(N)=O` [Conjugate C10] gave a half-life at 750 nM in data set [1] of 121 h. Moreover, the EC50 on human KISS-receptor (setting [2]) is 0.123 nM; at human KISS-receptor (setting [3]), 0.525 nM.
As for `CNC(=N)NCCC[C@H](NC(=O)[C@H](CC(C)C)n1cc(CNC(=O)[C@H](Cc2ccccc2)NC(=O)[C@@H](NC(=O)[C@H](CC(N)=O)NC(=O)[C@H](Cc2c[nH]c3ccccc23)NC(=O)[C@H](CC(N)=O)NC(=O)[C@@H](Cc2ccc(O)cc2)NC(=O)CCOCCOCCOCCOCCn2cc(CCC(=O)NCCOCCOCCOCCO[C@H]3[C@H](OC)[C@@H](OC)[C@@H](O[C@H]4[C@H](OC)[C@@H](OC)[C@H](O[C@H]5[C@H](OS(=O)(=O)O)[C@@H](OS(=O)(=O)O)[C@@H](O[C@H]6[C@H](OC)[C@@H](OC)[C@H](O[C@H]7[C@H](OC)[C@@H](OS(=O)(=O)O)[C@@H](OC)O[C@@H]7COS(=O)(=O)O)O[C@H]6C(=O)O)O[C@@H]5COS(=O)(=O)O)O[C@@H]4C(=O)O)O[C@@H]3COS(=O)(=O)O)nn2)[C@@H](C)O)nn1)C(=O)N[C@@H](Cc1ccccc1)C(N)=O` [Conjugate C19], the half-life at 750 nM in data set [1] is 175 h.
For `CNC(=N)NCCC[C@H](NC(=O)[C@H](CC(C)C)n1cc(CNC(=O)[C@H](Cc2ccccc2)NC(=O)[C@@H](NC(=O)[C@H](CC(N)=O)NC(=O)[C@H](Cc2c[nH]c3ccccc23)NC(=O)[C@H](CC(N)=O)NC(=O)[C@@H](Cc2ccc(O)cc2)NC(=O)CCCCn2cc(CCC(=O)NCCOCCOCCOCCO[C@H]3[C@H](OC)[C@@H](OC)[C@@H](O[C@H]4[C@H](OC)[C@@H](OC)[C@H](O[C@H]5[C@H](OS(=O)(=O)O)[C@@H](OS(=O)(=O)O)[C@@H](O[C@H]6[C@H](OC)[C@@H](OC)[C@H](O[C@H]7[C@H](OC)[C@@H](OS(=O)(=O)O)[C@@H](OC)O[C@@H]7COS(=O)(=O)O)O[C@H]6C(=O)O)O[C@@H]5COS(=O)(=O)O)O[C@@H]4C(=O)O)O[C@@H]3COS(=O)(=O)O)nn2)[C@@H](C)O)nn1)C(=O)N[C@@H](Cc1ccccc1)C(N)=O` [Conjugate C18], the half-life at 750 nM in data set [1] was 233 h. The half-life at 750 nM values of the last two compounds are within 1.5-fold of each other.

One may read the half-life as the time needed for the level to fall by half in the phase considered. Read a low half-life as fast loss.

Source of the values: patent publication US9127038B2, “Kisspeptide-pentasaccharide conjugates” (Merck Sharp & Dohme Corp., priority 2011, dated 2015).
